# Reference: publication PMC10630452, “The tumor-enriched small molecule gambogic amide suppresses glioma by targeting WDR1-dependent cytoskeleton remodeling” (Signal Transduction and Targeted Therapy, 2023)
# Legend:
# [1] = tested on: BGC-823-SLC cells (GCSC); experiment: IC50 assay (MTS cell viability); type: cell-based; conditions: 48 h
# Method: (§1) Four PDC lines (T12-1, T12-2, T2-4, T19-1) obtained from the Beijing Tiantan Hospital[53] and three GSC lines (GSC2, U87MG-SLC, U251-SLC) were established and verified in our previous work.[17] Two GCSC lines were kindly provided by Dr. Ran.[54] These cell lines were cultured in neurobasal medium (Gibco) containing 2% B27 (Gibco), 1% 100 × Antibiotic-Antimycotic (Gibco), 2 mmol/L L-glutamine (catalog SH30034.01, HyClone), 20 ng/mL bFGF (catalog 100-18B-50UG, PeproTech), 20 ng/mL EGF (catalog AF-100-15-100UG, PeproTech), and 10 μg/mL heparin (Sigma‒Aldrich). H1-NSCs obtained from D.Q. Pei’s laboratory (Guangzhou Institutes of Biomedicine and Health, Chinese Academy of Sciences, Guangzhou, China), were cultured in the same medium as the PDCs, with the addition of 1% N-2 supplement (Gibco, Thermo Fisher Scientific). The human astrocyte (HA) cell line was purchased from ScienCell and cultured in commercial astrocyte medium (catalog 1801, ScienCell) supplemented with 1% AGS (ScienCell), 2% FBS (ScienCell) and 1% P/S solution (ScienCell). Regarding the GC cell lines, U87MG cells were purchased from the American Type Culture Collection (ATCC), and U251 cells were purchased from the Cell Center of Peking Union Medical College. The GC cells were cultured in DMEM (Gibco) supplemented with 10% FBS (ScienCell) and 1% 100 × Antibiotic-Antimycotic.
# (§2) Cells were seeded in 96-well plates and treated with 0, 0.03, 0.1, 0.3, 1, 3, 10, or 30 μM GA-amide (Santa Cruz) in triplicate. After 48 h of incubation, cell viability was quantified using the MTS assay, and the GA-amide cytotoxicity curve was estimated using GraphPad Prism.
# [2] = tested on: GSC2 cells (GSC); experiment: IC50 assay (MTS cell viability); type: cell-based; conditions: 48 h
# Method: as §1, §2
# [3] = tested on: H1P56NSC (H1-NSCs); experiment: IC50 assay (MTS cell viability); type: cell-based; conditions: Homo sapiens, normal cells (NC), 48 h
# Method: as §1, §2
# [4] = tested on: HA (human astrocyte) cells; experiment: IC50 assay (MTS cell viability); type: cell-based; conditions: normal cells (NC), 48 h
# Method: as §1, §2
# [5] = tested on: SNU5-SLC cells (GCSC); experiment: IC50 assay (MTS cell viability); type: cell-based; conditions: 48 h
# Method: as §1, §2
# [6] = tested on: T12-1 cells (PDC); experiment: IC50 assay (MTS cell viability); type: cell-based; conditions: Homo sapiens, T12-1, PDC, 48 h
# Method: as §1, §2
# [7] = tested on: T12-2 cells (PDC); experiment: IC50 assay (MTS cell viability); type: cell-based; conditions: Homo sapiens, T12-2, PDC, 48 h
# Method: as §1, §2
# [8] = tested on: T19-1 cells (PDC); experiment: IC50 assay (MTS cell viability); type: cell-based; conditions: Homo sapiens, T19-1, PDC, 48 h
# Method: as §1, §2
# [9] = tested on: T2-4 cells (PDC); experiment: IC50 assay (MTS cell viability); type: cell-based; conditions: Homo sapiens, T2-4, PDC, 48 h
# Method: as §1, §2
# [10] = tested on: U251 cells (GC); experiment: IC50 assay (MTS cell viability); type: cell-based; conditions: Homo sapiens, U-251, 48 h
# Method: as §1, §2
# [11] = tested on: U251-SLC cells (GSC); experiment: IC50 assay (MTS cell viability); type: cell-based; conditions: 48 h
# Method: as §1, §2
# [12] = tested on: U87MG cells (GC); experiment: IC50 assay (MTS cell viability); type: cell-based; conditions: Homo sapiens, U-87 MG, 48 h
# Method: as §1, §2
# [13] = tested on: U87MG-SLC cells (GSC); experiment: IC50 assay (MTS cell viability); type: cell-based; conditions: 48 h
# Method: as §1, §2
# [14] = tested on: TMZ-resistant cells (T2-4, GSC2 and T12-1); experiment: Time curve cell viability assay (MTS); type: cell-based; conditions: PDCs and GSCs
# Method: Fig. 2 The BBB permeability and tumor suppressor ability of GA-amide compared with TMZ. GA-amide (a) or TMZ (b) concentration in the tumor area and normal brain tissue following a single injection of GA-amide (10 mg/kg, i.v.) or TMZ (10 mg/kg, i.v.). The data are presented as the means ± SEMs (n = 3). c Western blot analysis of the expression of TrkA in mouse tumor tissues (T) and normal brain tissues (N), n = 4. d Western blot analysis of glycosylated TrkA expression in human normal brain tissues (N) and glioma tissues of different grades. e Time curve of GA-amide and TMZ treatment in a cell viability assay (MTS) in T2-4, GSC2 and T12-1 cells. f–h A PDX mouse model was established, and the mice were treated with vehicle (control, n = 9), 2 mg/kg GA-amide (n = 9), 2 mg/kg GAC (n = 9) or […] TMZ (n = 8) by i.p. injection daily for 10 days. A summary photograph is presented in (f), statistical results in (g) and the body weights of mice in (h); the mean ± SEMs are shown. n.s: P ≥ 0.05, *P < 0.05, **P < 0.01 and ***P < 0.001 compared with the control group by one-way ANOVA at each time point
# [15] = Acute toxicity assay, blood routine examination; type: in vivo, mice; conditions: for #Retic (Reticulocyte) / CH (corpuscular hemoglobin) / CHCM (Cellular Hemoglobin Concentration Mean) / CHDW (Cell hemoglobin distribution width) / HCT (Hematocrit) / HDW (Hemoglobin Distribution Width) / HGB (Hemoglobin) / MCH (Mean Corpuscular Hemoglobin) / MCHC (Mean corpuscular hemoglobin concentration) / MCV (Mean Corpuscular Volume) / MPV (Mean platelet volume) / PCT (Plateletocrit) / PDW (Platelet distribution width) / PLT (Platelet) / RBC (Red Blood Cell) / RDW (red blood cell volume distribution width) / WBC (White Blood Cell): mice
# [16] = tested on: WDR1 deficient U87MG-SLC cells; experiment: sgWDR1 U87MG-SLC subcutaneous xenograft; type: in vivo, nude mice; conditions: 2 mg/kg i.p. once daily for 10 days
smiles,measurement,setting,value
"CC(C)=CCC[C@]1(C)C=Cc2c(O)c3c(c(CC=C(C)C)c2O1)O[C@]12C(=C[C@@H]4CC1C(C)(C)O[C@@]2(C/C=C(/C)C(N)=O)C4=O)C3=O [GA-amide, gambogic amide]",IC50,[1],870 nM
same,IC50,[2],133 nM
same,IC50,[3],941 nM
same,IC50,[4],1030 nM
same,IC50,[5],962 nM
same,IC50,[6],249 nM
same,IC50,[7],286 nM
same,IC50,[8],277 nM
same,IC50,[9],167 nM
same,IC50,[10],168 nM
same,IC50,[11],214 nM
same,IC50,[12],231 nM
same,IC50,[13],399 nM
same,viability of TMZ-resistant cells over time,[14],effectively reduced the viability of TMZ-resistant cells
same,routine blood parameters and serum biochemical analytes versus control,"[15]; 1 mg/kg and 10 mg/kg, one-time i.v., ALT and Cl fluctuated",no significant differences in routine blood parameters and most analytes evaluated in biochemical analysis of mouse serum
same,#Retic (Reticulocyte),[15]; 1mg/kg one-time i.v.,335.1±72.9 ×109cells/L
same,CH (corpuscular hemoglobin),[15]; 1mg/kg one-time i.v.,16.8 ± 0.5 pg
same,CHCM (Cellular Hemoglobin Concentration Mean),[15]; 1mg/kg one-time i.v.,35.7 ± 0.8 g/dL
same,CHDW (Cell hemoglobin distribution width),[15]; 1mg/kg one-time i.v.,3.00±0.39%
same,HCT (Hematocrit),[15]; 1mg/kg one-time i.v.,42.8±7.5%
same,HDW (Hemoglobin Distribution Width),[15]; 1mg/kg one-time i.v.,2.66 ± 0.20 g/dL
same,HGB (Hemoglobin),[15]; 1mg/kg one-time i.v.,13.0 ± 0.7 g/dL
same,MCH (Mean Corpuscular Hemoglobin),[15]; 1mg/kg one-time i.v.,14.5 ± 1.7 pg
same,MCHC (Mean corpuscular hemoglobin concentration),[15]; 1mg/kg one-time i.v.,31.0 ± 3.9 g/dL
same,MCV (Mean Corpuscular Volume),[15]; 1mg/kg one-time i.v.,47.0 ± 1.8 fL
same,MPV (Mean platelet volume),[15]; 1mg/kg one-time i.v.,8.3 ± 0.3 fL
same,PCT (Plateletocrit),[15]; 1mg/kg one-time i.v.,1.33±0.30%
same,PDW (Platelet distribution width),[15]; 1mg/kg one-time i.v.,48.8±2.5%
same,PLT (Platelet),[15]; 1mg/kg one-time i.v.,1603±310 ×103cells/μL
same,RBC (Red Blood Cell),[15]; 1mg/kg one-time i.v.,9.09±1.40 ×106cells/μL
same,RDW (red blood cell volume distribution width),[15]; 1mg/kg one-time i.v.,16.5±1.2%
same,WBC (White Blood Cell),[15]; 1mg/kg one-time i.v.,4.78±1.34 ×103cells/μL
same,#Retic (Reticulocyte),[15]; 10mg/kg one-time i.v.,836.7±674.4 ×109cells/L
same,CH (corpuscular hemoglobin),[15]; 10mg/kg one-time i.v.,17.0 ± 0.5 pg
same,CHCM (Cellular Hemoglobin Concentration Mean),[15]; 10mg/kg one-time i.v.,35.4 ± 1.3 g/dL
same,CHDW (Cell hemoglobin distribution width),[15]; 10mg/kg one-time i.v.,3.15±0.11%
same,HCT (Hematocrit),[15]; 10mg/kg one-time i.v.,48.5±5.1%
same,HDW (Hemoglobin Distribution Width),[15]; 10mg/kg one-time i.v.,2.71 ± 0.10 g/dL
same,HGB (Hemoglobin),[15]; 10mg/kg one-time i.v.,13.6 ± 0.5 g/dL
same,MCH (Mean Corpuscular Hemoglobin),[15]; 10mg/kg one-time i.v.,13.6 ± 1.8 pg
same,MCHC (Mean corpuscular hemoglobin concentration),[15]; 10mg/kg one-time i.v.,28.4 ± 3.8 g/dL
same,MCV (Mean Corpuscular Volume),[15]; 10mg/kg one-time i.v.,47.8 ± 1.1 fL
same,MPV (Mean platelet volume),[15]; 10mg/kg one-time i.v.,8.4 ± 0.2 fL
same,PCT (Plateletocrit),[15]; 10mg/kg one-time i.v.,1.63±0.60%
same,PDW (Platelet distribution width),[15]; 10mg/kg one-time i.v.,49.9±2.3%
same,PLT (Platelet),[15]; 10mg/kg one-time i.v.,1936±670 ×103cells/μL
same,RBC (Red Blood Cell),[15]; 10mg/kg one-time i.v.,10.13±1.05 ×106cells/μL
same,RDW (red blood cell volume distribution width),[15]; 10mg/kg one-time i.v.,17.0±0.6%
same,WBC (White Blood Cell),[15]; 10mg/kg one-time i.v.,4.38±0.95 ×103cells/μL
same,tumor growth of WDR1 deficient xenograft,[16],could not inhibit the tumor growth
